Literature values in publication PMC11185183 (PNAS Nexus, 2024).

Test system: GC-B

CN(C)CCN1CCCC(C(=O)Nc2nc3c(F)cc(F)cc3s2)C1 (stereo not shown) [MCUF-651]
action on GC-B: lacked any action
